In US6911446B2, “Methods of modulating serine/threonine protein kinase function with quinazoline-based compounds” (Sugen, Inc., priority 1997, dated 2005):

Columns and labels:
[1] = tested on: 3T3/H-Ras (NIH 3T3 clone 7 cells expressing genomic fragment of oncogenic H-Ras); test: Growth of NIH 3T3 cells over expressing H-Ras (SRB); type: cell-based; conditions: Mus musculus, NIH3T3, 72 h, growth of 3T3/H-Ras cells, 3 days with compound
Method: The following assay measures growth rates for NIH-3T3 cells expressing RAS. The purpose of the assay is to determine the effects of compounds on the growth of NIH 3T3 cells over expressing H-Ras.
• 96-well flat bottom sterile plates • 96-well round bottom sterile plates • sterile 25 mL or 100 mL reservoir • pipets, multi-channel pipetman • sterile pipet tips • sterile 15 mL and 50 mL tubes Reagents • 0.4% SRB in 1% acetic acid • 10 mM Tris base • 10% TCA • 1% acetic acid • sterile DMSO (Sigma) • compound in DMSO (100 mM or less stock solution) • Trypsin-EDTA (GIBCO BRL) Cell Line: 3T3/H-Ras (NIH 3T3 clone 7 cells expressing genomic fragment of oncogenic H-Ras).
The cells can be constructed using the following protocol: • 1. Subclone a gene fragment encoding Ras into a commercially available vector that will stably transfect NIH-3T3 cells. The fragment is from the genomic transforming allele of cHa-ras. • 2. Transfect NIH-3T3 cells with the subcloned vector by a calcium phosphate method. Select cells expressing the Ras construct in 2% serum in DMEM. Visible foci are observed after 2 weeks. Pool the transformed cells to generate a stably transformed cell line. Growth Medium: 2% calf serum/DMEM+2 mM glutamine, Pen/Strep Protocol: Day 0: Cell Plating:
This part of assay is carried out in a laminar flow hood. • 1. Trypsinize cells. Transfer 200 μL of cell suspension to 10 mL of isotone. Count cells with a Coulter Counter. • 2. Dilute cells in growth medium to 60,000 cell/mL. Transfer 100 μL of cells to each well in a 96-well flat bottom plate to give 6000 cells/well. • 3. Use half of plate (4 rows) for each comound and quadruplicate wells for each compound concentration, and a set of 4 wells for medium control. • 4. Gently shake plates to allow for uniform attachment of the cells. • 5. Incubate the plates at 37° C. in a 10% CO2 incubator. Day 1: Addition of Compound:
This part of assay is carried out in a laminar flow hood. • 1. In a 96-well round bottom plate, add 120 μL of growth medium containing 2×final % DMSO found in highest screening concentration of compound to columns 1 to 11. For example, if the highest concentration is […], and this is made from a 100 mM stock, 1×DMSO is 0.1%, so 2×DMSO is 0.2%. This plate is used to titrate out the compound, 4 rows per compound. • 2. In a sterile 15 mL tube, make a 2×solution of the highest screening concentration of compound in growth medium plus 2×DMSO. 1 mL per cell line is needed. The starting concentration of the compound is usually 100 μM but this concentration may vary depending upon the solubility of the compound. • 3. Transfer 240 μL of the 2×starting compound solution to qudruplicate wells in column 12 of the 96-well round bottom plate. Do 1:2 serial dilutions across the plate from right to left by transferring […] from column 12 to column 11, column 11 to 10 and so on through column 2. Transfer 100 μL of compound dilutions, and 100 μL of medium in column 1, onto 100 μL medium on cells in corresponding wells of 96-well flat bottom plate. Total volume per well should be 200 μL. • 4. Return the plate to the incubator and incubate for 3 days. Day 4: Development of Assay
This party of assay is carried out on the bench. • 1. Aspirate or pour off medium. Add 200 μL cold 10% TCA to each well to fix cells. Incubate plate for at least 60 min. at 4° C. • 2. Discard TCA and rinse wells 5 times with tap water. Dry plates upside down on paper towels. • 3. Stain cells with 100 μL/well 0.4% SRB for 10 min. • 4. Pour of SRB and rinse wells 5 times with 1% acetic acid. Dry plates completely upside down on paper towels. • 5. Solubilize dye with 100 μL/well 10 mM Tris base for 5-10 min. on shaker. • 6. Read plates on Dynatech ELISA Plate REader at 570 nm with reference at 630 nm.

[2] = molecular target: T1, EGF Receptor (Homo sapiens, UniProt P00533); test: EGF Receptor kinase activity in whole cells (EGFR-NIH3T3 assay, EGFR ELISA); type: cell-based; conditions: Table 5, EGFR ELISA assay in whole cells (EGFR-NIH3T3); read-out: IC50 A549
T1 construct: expressed in transfected cells; host or cells: NIH3T3 (EGFR-NIH3T3)
T1 sequence (P00533 25-1210): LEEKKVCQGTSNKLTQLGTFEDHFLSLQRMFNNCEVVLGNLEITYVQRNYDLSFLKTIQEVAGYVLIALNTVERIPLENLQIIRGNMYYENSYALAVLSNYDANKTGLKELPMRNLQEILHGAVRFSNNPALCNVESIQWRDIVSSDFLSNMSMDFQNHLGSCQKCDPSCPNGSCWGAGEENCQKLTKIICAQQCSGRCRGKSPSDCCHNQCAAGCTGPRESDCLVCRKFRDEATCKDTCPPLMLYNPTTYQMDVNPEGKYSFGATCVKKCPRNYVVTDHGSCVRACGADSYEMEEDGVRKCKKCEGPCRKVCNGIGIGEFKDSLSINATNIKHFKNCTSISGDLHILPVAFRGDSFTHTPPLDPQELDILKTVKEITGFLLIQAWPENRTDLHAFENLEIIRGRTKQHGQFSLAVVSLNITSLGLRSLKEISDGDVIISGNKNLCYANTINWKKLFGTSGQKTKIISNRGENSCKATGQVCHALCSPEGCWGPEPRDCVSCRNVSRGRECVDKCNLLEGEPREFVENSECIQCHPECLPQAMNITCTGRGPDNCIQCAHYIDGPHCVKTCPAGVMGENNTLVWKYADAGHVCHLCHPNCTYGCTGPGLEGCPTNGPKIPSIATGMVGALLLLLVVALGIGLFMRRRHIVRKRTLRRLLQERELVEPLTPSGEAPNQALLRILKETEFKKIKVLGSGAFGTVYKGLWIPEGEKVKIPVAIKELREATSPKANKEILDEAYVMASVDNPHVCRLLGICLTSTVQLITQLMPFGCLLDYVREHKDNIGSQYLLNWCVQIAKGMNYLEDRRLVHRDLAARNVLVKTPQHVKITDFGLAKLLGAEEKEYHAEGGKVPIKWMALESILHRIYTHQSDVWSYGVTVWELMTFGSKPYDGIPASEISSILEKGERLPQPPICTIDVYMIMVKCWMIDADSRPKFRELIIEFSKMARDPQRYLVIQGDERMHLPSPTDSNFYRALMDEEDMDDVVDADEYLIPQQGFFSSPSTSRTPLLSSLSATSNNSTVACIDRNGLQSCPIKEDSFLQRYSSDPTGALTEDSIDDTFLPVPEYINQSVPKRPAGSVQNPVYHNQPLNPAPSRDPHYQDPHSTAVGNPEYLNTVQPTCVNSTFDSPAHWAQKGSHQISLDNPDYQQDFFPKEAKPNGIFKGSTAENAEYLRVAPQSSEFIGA
Method: EGF Receptor kinase activity (EGFR-NIH3T3 assay) in whole cells was measured as described in detail in PCT Publication WO9640116, filed Jun. 5, 1996, by Tang et al., and entitled “Indolinone Compounds for the Treatment of Disease,” incorporated herein by reference in its entirety, including any drawings.

SMILES | IC50 [2] [µM] | IC50 [1] [µM]
CC(C)(C)c1ccc(Oc2cccc3nc(N)nc(N)c23)cc1 [Compound A-8, 2,4-Diamino-5-(4-tert-butylphenoxy)quinazoline] | – | 22.3
COc1cccc(Oc2cccc3nc(N)nc(N)c23)c1 [Compound A-23, 2,4-Diamino-5-(3-methoxyphenoxy)quinazoline] | 17.2 | 0.6
COc1ccccc1Oc1cccc2nc(N)nc(N)c12 [Compound A-22, 2,4-Diamino-5-(2-methoxyphenoxy)quinazoline] | > 100 | 0.4
Cc1ccc(Oc2cccc3nc(N)nc(N)c23)cc1 [Compound A-9, 2,4-Diamino-5-(4-methylphenoxy)quinazoline] | – | 20.4

The next lines start with results.

IC50 [2] [µM] | SMILES | IC50 [1] [µM]
> 100 | Nc1nc(N)c2c(Oc3ccc(F)cc3)cccc2n1 [Compound A-7, 2,4-Diamino-5-(4-fluorophenoxy)quinazoline] | > 100
75.1 | Nc1ncnc2cccc(Oc3ccc(OCc4ccccc4)cc3)c12 [Compound A-28, 4-Amino-5-(4-benzyloxyphenoxy)quinazoline] | 6
> 100 | COc1ccc(Oc2cccc3nc(N)nc(N)c23)cc1 [Compound A-6, 2,4-Diamino-5-(4-methoxyphenoxy)quinazoline] | > 100
24.6 | Nc1nc(N)c2c(Oc3ccccc3)cccc2n1 [Compound A-1, 2,4-Diamino-5-phenoxyquinazoline] | 0.85
